From PubChem BioAssay AID248 (DTP/NCI, 2004)
“And” between values parts separate entries of the source, which are not always exact repeats. Identical values can stand only once. Toxic doses and inconclusive results are not listed. Rule as the data show it: active = T/C of 150% or more; inactive = T/C below 125%.

System: L1210 leukemia ip in BDF1 mice, survival T/C
Assay: NCI In Vivo Anticancer Drug Screen. Data for tumor model L1210 Leukemia (intraperitoneal) in B6D2F1 (BDF1) mice
Details: endpoint: mean survival time, higher = longer survival
Summary of the method: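 Antitumor effect is assessed in tumor-bearing animals. Survival in the compound arm is compared with a vehicle-dosed control arm and expressed as their quotient.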

[1] = dose: 100.0 mg/kg/injection, schedule: Q01DX001 (ip), vehicle: saline
[2] = dose: 200.0 mg/kg/injection, schedule: Q01DX001 (ip), vehicle: saline
[3] = dose: 400.0 mg/kg/injection, schedule: Q01DX001 (ip), vehicle: saline
[4] = dose: 100.0 mg/kg/injection, schedule: Q04DX003 (ip), vehicle: saline
[5] = dose: 200.0 mg/kg/injection, schedule: Q01DX009 (ip), vehicle: saline
[6] = dose: 200.0 mg/kg/injection, schedule: Q04DX003 (ip), vehicle: saline
[7] = dose: 100.0 mg/kg/injection, schedule: Q04DX003 (ip), vehicle: saline with Tween-80
[8] = dose: 200.0 mg/kg/injection, schedule: Q04DX003 (ip), vehicle: saline with Tween-80
[9] = dose: 400.0 mg/kg/injection, schedule: Q04DX003 (ip), vehicle: saline with Tween-80
[10] = dose: 400.0 mg/kg/injection, schedule: Q04DX003 (ip), vehicle: saline
[11] = dose: 400.0 mg/kg/injection, schedule: Q01DX009 (ip), vehicle: saline with Tween-80
[12] = dose: 100.0 mg/kg/injection, schedule: Q04DX003 (ip), vehicle: Klucel (hydroxypropylcellulose) (HPC)
[13] = dose: 200.0 mg/kg/injection, schedule: Q04DX003 (ip), vehicle: Klucel (hydroxypropylcellulose) (HPC)
[14] = dose: 100.0 mg/kg/injection, schedule: Q04DX002 (ip), vehicle: saline with Tween-80
[15] = dose: 200.0 mg/kg/injection, schedule: Q04DX002 (ip), vehicle: saline with Tween-80
[16] = dose: 400.0 mg/kg/injection, schedule: Q04DX002 (ip), vehicle: saline with Tween-80
[17] = dose: 75.0 mg/kg/injection, schedule: Q01DX001 (ip), vehicle: other
[18] = dose: 150.0 mg/kg/injection, schedule: Q01DX001 (ip), vehicle: other

Measured: T/C

O=C(NC12CC3CC(CC(C3)C1)C2)C(O)C(O)C(O)C(O)CO (stereo unspecified)
inactive: [1] 110 % of control | [2] 100 % of control | [3] 100 % of control

CN(C)CCCN1c2ccccc2S(=O)c2ccc(Cl)cc21 (stereo unspecified)
inactive: dose: 12.5 mg/kg/injection, schedule: Q01DX009 (ip), vehicle: saline 96 % of control | dose: 25.0 mg/kg/injection, schedule: Q01DX009 (ip), vehicle: saline 102 % of control | dose: 25.0 mg/kg/injection, schedule: Q04DX003 (ip), vehicle: saline 109 % of control | dose: 50.0 mg/kg/injection, schedule: Q01DX009 (ip), vehicle: saline 111 % of control | dose: 50.0 mg/kg/injection, schedule: Q04DX003 (ip), vehicle: saline 106 % of control | dose: 100.0 mg/kg/injection, schedule: Q01DX009 (ip), vehicle: saline 96 % of control | [4] 95 % of control | [5] 107 % of control | [6] 103 % of control

COc1cc(C(=O)NO)cc(OC)c1OC
inactive: [7] 97 % of control and 104 % of control | [8] 97 % of control and 110 % of control | [9] 97 % of control and 100 % of control

O=C1CC2CC(=O)CC2C1 (stereo unspecified)
inactive: dose: 100.0 mg/kg/injection, schedule: Q01DX001 (ip), vehicle: Klucel (hydroxypropylcellulose) (HPC) 104 % of control | [4] 105 % of control | dose: 200.0 mg/kg/injection, schedule: Q01DX001 (ip), vehicle: Klucel (hydroxypropylcellulose) (HPC) 97 % of control | [5] 90 % of control | [6] 105 % of control | dose: 400.0 mg/kg/injection, schedule: Q01DX001 (ip), vehicle: Klucel (hydroxypropylcellulose) (HPC) 98 % of control | [10] 94 % of control

Cc1cc(Cl)c2ccccc2c1N
inactive: dose: 100.0 mg/kg/injection, schedule: Q01DX009 (ip), vehicle: saline with Tween-80 106 % of control | [7] 104 % of control | dose: 200.0 mg/kg/injection, schedule: Q01DX009 (ip), vehicle: saline with Tween-80 96 % of control | [8] 102 % of control | [11] 98 % of control | [9] 100 % of control

C1CC[C@@H]2NCCC[C@H]2C1
inactive: dose: 100.0 mg/kg/injection, schedule: Q01DX001 (ip), vehicle: carboxymethylcellulose (CMC) 103 % of control | dose: 200.0 mg/kg/injection, schedule: Q01DX001 (ip), vehicle: carboxymethylcellulose (CMC) 92 % of control

Cc1ccc(S)c(C)c1
inactive: [12] 93 % of control | [13] 95 % of control

CC(CNCCN)C[Si](C)(C)C (stereo unspecified)
inactive: dose: 4.0 mg/kg/injection, schedule: Q01DX015 (ip), vehicle: saline 101 % of control | dose: 6.25 mg/kg/injection, schedule: Q04DX003 (ip), vehicle: saline sonified 101 % of control | dose: 8.0 mg/kg/injection, schedule: Q01DX015 (ip), vehicle: saline 96 % of control | dose: 12.5 mg/kg/injection, schedule: Q04DX003 (ip), vehicle: saline sonified 97 % of control | dose: 16.0 mg/kg/injection, schedule: Q01DX015 (ip), vehicle: saline 102 % of control | dose: 25.0 mg/kg/injection, schedule: Q04DX003 (ip), vehicle: saline sonified 97 % of control | dose: 32.0 mg/kg/injection, schedule: Q01DX015 (ip), vehicle: saline 96 % of control

OCC1OC(n2c(N3CCOCC3)nc3ccccc32)C(O)C1O (stereo unspecified)
inactive: [1] 115 % of control | [2] 97 % of control | [3] 96 % of control

CCOc1ccc(NC(=O)CCCCCCCCC(=O)Nc2ccc(OCC)cc2)cc1
inactive: dose: 50.0 mg/kg/injection, schedule: Q01DX009 (ip), vehicle: saline with Tween-80 98 % of control | dose: 100.0 mg/kg/injection, schedule: Q01DX001 (ip), vehicle: saline with Tween-80 96 % of control | [14] 95 % of control and 110 % of control | [7] 88 % of control | dose: 200.0 mg/kg/injection, schedule: Q01DX001 (ip), vehicle: saline with Tween-80 91 % of control | [15] 100 % of control and 89 % of control | [8] 96 % of control | dose: 400.0 mg/kg/injection, schedule: Q01DX001 (ip), vehicle: saline with Tween-80 88 % of control | [11] 100 % of control and 108 % of control | [16] 94 % of control and 97 % of control | [9] 91 % of control

CN=C(c1ccc(NC(=O)c2ccc(C(=O)Nc3ccc(C(=NC)N(C)c4ccccc4)cc3)cc2)cc1)N(C)c1ccccc1
inactive: dose: 0.94 mg/kg/injection, schedule: Q01DX Z (ip), vehicle: saline 106 % of control | dose: 1.88 mg/kg/injection, schedule: Q01DX Z (ip), vehicle: saline 104 % of control | dose: 3.75 mg/kg/injection, schedule: Q01DX Z (ip), vehicle: saline 90 % of control

COc1ccc2c(c1OC)C1(CCN(C)C)CC(=O)CCC1C=C2 (stereo unspecified)
inactive: dose: 3.12 mg/kg/injection, schedule: Q01DX009 (ip), vehicle: Klucel (hydroxypropylcellulose) (HPC) 103 % of control | dose: 6.25 mg/kg/injection, schedule: Q01DX009 (ip), vehicle: Klucel (hydroxypropylcellulose) (HPC) 95 % of control | dose: 12.5 mg/kg/injection, schedule: Q01DX009 (ip), vehicle: Klucel (hydroxypropylcellulose) (HPC) 98 % of control | dose: 25.0 mg/kg/injection, schedule: Q01DX009 (ip), vehicle: Klucel (hydroxypropylcellulose) (HPC) 86 % of control | [12] 98 % of control

O=C(COc1ccc(Cl)cc1Cl)NCCO
inactive: [12] 98 % of control | [13] 97 % of control | dose: 400.0 mg/kg/injection, schedule: Q04DX003 (ip), vehicle: Klucel (hydroxypropylcellulose) (HPC) 111 % of control

COc1cc(C2=N/C(=C\c3cc(Br)cc(Br)c3O)C(=O)O2)cc(OC)c1OC
inactive: dose: 25.0 mg/kg/injection, schedule: Q04DX002 (ip), vehicle: saline with Tween-80 97 % of control | dose: 50.0 mg/kg/injection, schedule: Q04DX002 (ip), vehicle: saline with Tween-80 90 % of control | [14] 90 % of control | [15] 95 % of control | [16] 95 % of control

ClC1=C(Cl)C2(Cl)C3C4CC(C(I)C4I)C3C1(Cl)C2(Cl)Cl (stereo unspecified)
inactive: [17] 98 % of control | [18] 95 % of control

O=C(/C=C/c1ccc(Cl)cc1)NCC(O)CO (stereo unspecified)
inactive: dose: 150.0 mg/kg/injection, schedule: Q04DX003 (ip), vehicle: water 100 % of control | dose: 300.0 mg/kg/injection, schedule: Q04DX003 (ip), vehicle: water 105 % of control | dose: 600.0 mg/kg/injection, schedule: Q04DX003 (ip), vehicle: water 102 % of control

CCOC(=O)C1C(=O)CC(C)(O)C(C(=O)OCC)C1c1ccccc1 (stereo unspecified)
inactive: [1] 98 % of control | [4] 104 % of control | [2] 106 % of control | [6] 100 % of control | [3] 109 % of control | [10] 94 % of control

O=C(NCCCl)NC1CC1c1ccccc1 (stereo unspecified)
inactive: [17] 97 % of control | [18] 103 % of control

C/C=C\S(=O)(=O)c1ccccc1
inactive: dose: 25.0 mg/kg/injection, schedule: Q04DX002 (ip), vehicle: Klucel (hydroxypropylcellulose) (HPC) 98 % of control | dose: 50.0 mg/kg/injection, schedule: Q04DX002 (ip), vehicle: Klucel (hydroxypropylcellulose) (HPC) 98 % of control | dose: 100.0 mg/kg/injection, schedule: Q04DX002 (ip), vehicle: Klucel (hydroxypropylcellulose) (HPC) 105 % of control | dose: 200.0 mg/kg/injection, schedule: Q04DX002 (ip), vehicle: Klucel (hydroxypropylcellulose) (HPC) 89 % of control
